Measured values as given in US8846673B2, “Azaindazoles as kinase inhibitors and use thereof” (Bristol-Myers Squibb Company, priority 2009, dated 2014).

What follows are compounds tested against Btk (pY551) in Ramos cells (Homo sapiens (Human), UniProt Q06187) (assay: Btk Phosphorylation Assay). Settings: 1 hr preincubation, stimulated with anti-human IgM+IgG 50 μg/mL for 2 min.
Type: cell-based
Procedure: Btk Phosphorylation Assay
Ramos cells (˜6×10^6 cells/10 were incubated in the presence of Btk inhibitors for 1 hr at 37° C. before being stimulated with anti-human IgM+IgG (F(ab′)2 fragment, Jackson ImmunoResearch, Catalog No. 109-006-127) at 50 μg/mL for exactly 2 min at 37° C. Cells were immediately fixed by adding an equal volume of pre-warmed BD Phosflow Fix buffer I (BD Biosciences, catalog number 557870) to the cell suspension. After incubating at 37° C. for 10 minutes, the cells were washed once with 3 mL FACS washing buffer (1% FBS/PBS) and permeabilized by adding 0.5 mL of cold BD Phosflow Penn Buffer III (BD Biosciences, Catalog No. 558050) and incubating for 30 minutes on ice. The cells were washed an additional two times with 3 mL BD FACS washing buffer, re-suspended in 100 μL FACS washing buffer, stained with 20 μL, Alexa647 anti-Btk (pY551) (BD Biosciences, Catalog No. 558134), incubated at room temperature for 30 minutes in the dark, and washed once with 3 ml of FACS washing buffer. The cells were re-suspended in 400 μl FACS wash buffer and analyzed using FACSCalibur (BD Biosciences). Median fluorescent intensity (MFI) on Alexa 647 (FL-4) data were collected and used for calculations of inhibition.

Chain of Btk (pY551) in Ramos cells (Q06187 whole entry): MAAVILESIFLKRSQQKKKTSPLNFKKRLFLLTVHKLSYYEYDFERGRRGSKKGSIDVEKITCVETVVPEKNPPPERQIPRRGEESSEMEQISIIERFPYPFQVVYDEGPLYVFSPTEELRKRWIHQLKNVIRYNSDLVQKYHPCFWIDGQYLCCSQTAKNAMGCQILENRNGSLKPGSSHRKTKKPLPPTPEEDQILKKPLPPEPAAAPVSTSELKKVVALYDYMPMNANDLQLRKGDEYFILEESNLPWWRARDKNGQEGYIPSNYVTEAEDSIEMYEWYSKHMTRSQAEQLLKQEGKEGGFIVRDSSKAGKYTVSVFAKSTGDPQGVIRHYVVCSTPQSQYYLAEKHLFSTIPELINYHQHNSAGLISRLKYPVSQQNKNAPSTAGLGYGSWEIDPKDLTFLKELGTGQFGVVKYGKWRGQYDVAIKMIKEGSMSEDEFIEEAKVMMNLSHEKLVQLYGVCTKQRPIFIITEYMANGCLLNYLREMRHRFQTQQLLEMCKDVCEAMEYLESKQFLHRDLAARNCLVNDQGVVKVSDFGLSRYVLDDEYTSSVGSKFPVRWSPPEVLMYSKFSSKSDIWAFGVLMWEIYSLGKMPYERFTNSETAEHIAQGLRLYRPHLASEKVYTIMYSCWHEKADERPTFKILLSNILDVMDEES

Row | Compound | IC50 [nM]
1 | Nc1n[nH]c2nccc(-c3ccc(Oc4ccccc4)cc3)c12 [Example 6, 4-(4-Phenoxyphenyl)-1H-pyrazolo[3,4-b]pyridin-3-amine] | 320

These compounds were tested against human recombinant Btk (Homo sapiens (Human), UniProt Q06187) (assay: Human Recombinant Btk Enzyme Assay (LLE_Btk)). Settings: human recombinant Btk 1 nM, ATP 20 μM, 60 min room temperature.
Chain of human recombinant Btk (Q06187 whole entry): as above
Type: biochemical
Procedure: Human Recombinant Btk Enzyme Assay
After incubating at room temperature for 60 min, the reaction was terminated by adding 45 μl of 35 mM EDTA to each sample. The reaction mixture was analyzed on the Caliper LABCHIP® 3000 (Caliper, Hopkinton, Mass.) by electrophoretic separation of the fluorescent substrate and phosphorylated product. […] Compounds were dissolved at 10 mM in dimethylsulfoxide (DMSO) and evaluated at eleven concentrations.

Row | Compound | IC50 [nM]
2 | Cc1cccc(Oc2ccc(-c3cc(C4CCCC4)nc4[nH]nc(N)c34)cc2)c1 [Example 5, 6-Cyclopentyl-4-(4-(3-methylphenoxy)phenyl)-1H-pyrazolo[3,4-b]pyridin-3-amine] | 290
3 | Cc1csc(NC(=O)NC2CCN(c3cc(-c4ccc(Oc5ccccc5)cc4)c4c(N)n[nH]c4n3)C2)n1 (stereo not drawn) [Example 31, 1-(1-(3-Amino-4-(4-phenoxyphenyl)-1H-pyrazolo[3,4-b]pyridin-6-yl)-3-pyrrolidinyl)-3-(4-methyl-1,3-thiazol-2-yl)urea] | 9410
4 | CC(C)Oc1ccc(-c2cncc3[nH]nc(N)c23)cc1 [Example 43, 4-(4-Isopropoxyphenyl)-1H-pyrazolo[3,4-c]pyridin-3-amine] | 9310
5 | Nc1n[nH]c2cncc(-c3ccc(OC4CCCC4)cc3)c12 [Example 44, 4-(4-(Cyclopentyloxy)phenyl)-1H-pyrazolo[3,4-c]pyridin-3-amine] | 9490
6 | Nc1n[nH]c2cncc(-c3ccc(C(=O)N4CCCC4)cc3)c12 [Example 47, 4-(4-(1-Pyrrolidinylcarbonyl)phenyl)-1H-pyrazolo[3,4-c]pyridin-3-amine] | 40600
7 | Nc1n[nH]c2c(-c3ccc(NC(=O)c4ccccc4)cc3)ncc(-c3ccc(Oc4ccccc4)cc3)c12 [Example 61, N-(4-(3-Amino-4-(4-phenoxyphenyl)-1H-pyrazolo[3,4-c]pyridin-7-yl)phenyl)benzamide] | 14900
8 | CS(=O)(=O)Nc1cccc(-c2ncc(-c3ccc(Oc4ccccc4)cc3)c3c(N)n[nH]c23)c1 [Example 62, N-(3-(3-Amino-4-(4-phenoxyphenyl)-1H-pyrazolo[3,4-c]pyridin-7-yl)phenyl) methanesulfonamide] | 270
9 | Nc1n[nH]c2c(-c3ccc(Cl)c(Cl)c3)ncc(-c3ccc(Oc4ccccc4)cc3)c12 [Example 82, 7-(3,4-Dichlorophenyl)-4-(4-phenoxyphenyl)-1H-pyrazolo[3,4-c]pyridin-3-amine] | 9180
10 | Nc1n[nH]c2c(-c3ccc4[nH]ccc4c3)ncc(-c3ccc(Oc4ccccc4)cc3)c12 [Example 95, 7-(1H-Indol-5-yl)-4-(4-phenoxyphenyl)-1H-pyrazolo[3,4-c]pyridin-3-amine] | 250
11 | CS(=O)(=O)Nc1ccc(-c2ncc(-c3ccc(Oc4ccccc4)cc3)c3c(N)n[nH]c23)cc1 [Example 96, N-(4-(3-Amino-4-(4-phenoxyphenyl)-1H-pyrazolo[3,4-c]pyridin-7-yl)phenyl)methanesulfonamide] | 280
12 | CC(C)COc1cccc(-c2ncc(-c3ccc(Oc4ccccc4)cc3)c3c(N)n[nH]c23)c1 [Example 102, 7-(3-Isobutoxyphenyl)-4-(4-phenoxyphenyl)-1H-pyrazolo[3,4-c]pyridin-3-amine] | 14000
13 | Cc1ccccc1-c1ncc(-c2ccc(Oc3ccccc3)cc2)c2c(N)n[nH]c12 [Example 107, 7-(2-Methylphenyl)-4-(4-phenoxyphenyl)-1H-pyrazolo[3,4-c]pyridin-3-amine] | 12700
14 | Nc1n[nH]c2c(-c3cccc(C(F)(F)F)c3)ncc(-c3ccc(Oc4ccccc4)cc3)c12 [Example 108, 4-(4-Phenoxyphenyl)-7-(3-(trifluoromethyl)phenyl)-1H-pyrazolo[3,4-c]pyridin-3-amine] | 16100
15 | Nc1n[nH]c2c(-c3cccc(OC(F)(F)F)c3)ncc(-c3ccc(Oc4ccccc4)cc3)c12 [Example 113, 4-(4-Phenoxyphenyl)-7-(3-(trifluoromethoxy)phenyl)-1H-pyrazolo[3,4-c]pyridin-3-amine] | 13800
16 | Nc1n[nH]c2nc(-c3cccs3)nc(-c3ccc(Oc4ccccc4)cc3)c12 [Example 120, 4-(4-Phenoxyphenyl)-6-(2-thienyl)-1H-pyrazolo[3,4-δ]pyrimidin-3-amine] | 240
17 | COc1cccc(-c2cnc(Nc3ccccc3)c3[nH]nc(N)c23)c1 [Example 128, 4-(3-Methoxyphenyl)-N^7-phenyl-1H-pyrazolo[3,4-c]pyridine-3,7-diamine] | 290
18 | COc1cccc(-c2cnc(Nc3ccccc3Cl)c3[nH]nc(N)c23)c1 [Example 130, N^7-(2-Chlorophenyl)-4-(3-methoxyphenyl)-1H-pyrazolo[3,4-c]pyridine-3,7-diamine] | 230
19 | COc1ccc(-c2cnc(Nc3ccccc3C)c3[nH]nc(N)c23)cc1 [Example 132, 4-(4-Methoxyphenyl)-N^7-(2-methylphenyl)-1H-pyrazolo[3,4-c]pyridine-3,7-diamine] | 260
20 | Cc1ccccc1Nc1ncc(-c2cccc(OC(C)C)c2)c2c(N)n[nH]c12 [Example 137, 4-(3-Isopropoxyphenyl)-N^7-(2-methylphenyl)-1H-pyrazolo[3,4-c]pyridine-3,7-diamine] | 240
21 | Nc1n[nH]c2cc(-c3ccc(-c4nnn[nH]4)cc3)nc(-c3ccc(Oc4ccccc4)cc3)c12 [Example 223, 4-(4-Phenoxyphenyl)-6-(4-(1H-tetrazol-5-yl)phenyl)-1H-pyrazolo[4,3-c]pyridin-3-amine] | 2
22 | Nc1n[nH]c2c(-c3ccccn3)cnc(-c3ccc(Oc4ccccc4)cc3)c12 [Example 225, 4-(4-Phenoxyphenyl)-7-(2-pyridinyl)-1H-pyrazolo[4,3-c]pyridin-3-amine] | 1
23 | Nc1n[nH]c2cc(C3CCCN(C(=O)Nc4ccccc4)C3)nc(-c3ccc(Oc4ccccc4)cc3)c12 (stereo not drawn) [Example 236, 3-(3-Amino-4-(4-phenoxyphenyl)-1H-pyrazolo[4,3-c]pyridin-6-yl)-N-phenyl-1-piperidinecarboxamide] | 3
24 | C=CC(=O)N1CCCC(c2cc3[nH]nc(N)c3c(-c3ccc(Oc4ccccc4)cc3)n2)C1 (stereo not drawn) [Example 237, 6-(1-Acryloyl-3-piperidinyl)-4-(4-phenoxyphenyl)-1H-pyrazolo[4,3-c]pyridin-3-amine] | 4
25 | COC(=O)C(=O)N1CCCC(c2cc3[nH]nc(N)c3c(-c3ccc(Oc4ccccc4)cc3)n2)C1 (stereo not drawn) [Example 238, Methyl(3-(3-amino-4-(4-phenoxyphenyl)-1H-pyrazolo[4,3-c]pyridin-6-yl)-1-piperidinyl)(oxo)acetate] | 2
26 | Nc1n[nH]c2cc(C3CCN(C(=O)Nc4ccccc4)CC3)nc(-c3ccc(Oc4ccccc4)cc3)c12 [Example 242, 4-(3-Amino-4-(4-phenoxyphenyl)-1H-pyrazolo[4,3-c]pyridin-6-yl)-N-phenyl-1-piperidinecarboxamide] | 2
27 | CN(C)C(=O)Cn1ccc(Nc2cc3[nH]nc(N)c3c(-c3ccc(Oc4ccccc4)cc3)n2)n1 [Example 249, 2-(3-((3-Amino-4-(4-phenoxyphenyl)-1H-pyrazolo[4,3-c]pyridin-6-yl)amino)-1H-pyrazol-1-yl)-N,N-dimethylacetamide] | 3
